Data: patent publication US7763657B2, “Compounds, isomer thereof, or pharmaceutically acceptable salts thereof as vanilloid receptor antagonist; and pharmaceutical compositions containing the same” (Amorepacific Corporation, priority 2005, dated 2010)

Biological target: T1, vanilloid receptor (Rattus norvegicus, UniProt O35433)
T1 construct: DRG nerve cells from the primary culture of 2 days were equilibrated; endogenous in cells; host or cells: primary cultured dorsal root ganglion neurons of neonatal SD rats
Assay: 45Ca influx test (calcium uptake) in primary cultured DRG neurons, antagonism of capsaicin
Type: cell-based
Conditions: neonatal SD rat DRG nerve cells; capsaicin 0.5 μM; 45Ca 10 μCi/ml; 10 mins room temperature; read-out: Antagonist Calcium Uptake Test (IC50)
Experimental: 1) Separation of Spinal Dorsal Root Ganglia (DRG) in Newborn Rats and Primary Culture Thereof
Neonatal (2-3 day old or younger than 2-3 day old) SD rats were put in ice for 5 minutes to anesthetize and disinfected with 70% ethanol. […] The DRG were incubated sequentially at 37° C. for 30 min in 200 U/ml collagenase and 2.5 mg/ml trypsin, separately. The ganglia were washed twice with DME/F12 medium supplemented with 10% horse serum, triturated through a fire-polished Pasteur pipette, filtered through Nitex 80 membrane to obtain single cell suspension and the suspension was washed once more. This was subjected to centrifugation, then resuspended in cell culture medium at certain level of cell density. As the cell culture medium, DME/F12 medium supplemented with 10% horse serum was diluted with identical medium conditioned by C6 glioma cells 2 days on a confluent monolayer (1:1), and NGF (Nerve Growth Factor) was added to adjust 200 ng/ml as final concentration. After the cells were grown 2 days in medium where cytosine arabinoside (Ara-C, 100 μM) was added to kill dividing nonneuronal cells, medium was changed to one without Ara-C. The resuspended cells were plated at a density of 1500-2000 neurons/well onto Terasaki plates previously coated with 10 μg/ml poly-D-ornithine.
2) ^45Ca Influx Experiments
DRG nerve cells from the primary culture of 2 days were equilibrated by washing 4 times with HEPES (10 mM, pH 7.4)-buffered Ca^2+, Mg^2+-free HBSS (H—HBSS). The solution in each well was removed from the individual well. Medium containing the test compound plus capsaicin (final concentration 0.5 μM) and ^45Ca (final concentration 10 μCi/ml) in H—HBSS was added to each well and incubated at room temperature for 10 mins. Terasaki plates were washed five times with H—HBSS and dried at room temperature. To each well, 0.3% SDS (10 μl) was added to elute ^45Ca. After the addition of scintillation cocktail of into each well, the amount of ^45Ca influx into neuron was measured by counting radioactivity.

T1 sequence (O35433 whole entry): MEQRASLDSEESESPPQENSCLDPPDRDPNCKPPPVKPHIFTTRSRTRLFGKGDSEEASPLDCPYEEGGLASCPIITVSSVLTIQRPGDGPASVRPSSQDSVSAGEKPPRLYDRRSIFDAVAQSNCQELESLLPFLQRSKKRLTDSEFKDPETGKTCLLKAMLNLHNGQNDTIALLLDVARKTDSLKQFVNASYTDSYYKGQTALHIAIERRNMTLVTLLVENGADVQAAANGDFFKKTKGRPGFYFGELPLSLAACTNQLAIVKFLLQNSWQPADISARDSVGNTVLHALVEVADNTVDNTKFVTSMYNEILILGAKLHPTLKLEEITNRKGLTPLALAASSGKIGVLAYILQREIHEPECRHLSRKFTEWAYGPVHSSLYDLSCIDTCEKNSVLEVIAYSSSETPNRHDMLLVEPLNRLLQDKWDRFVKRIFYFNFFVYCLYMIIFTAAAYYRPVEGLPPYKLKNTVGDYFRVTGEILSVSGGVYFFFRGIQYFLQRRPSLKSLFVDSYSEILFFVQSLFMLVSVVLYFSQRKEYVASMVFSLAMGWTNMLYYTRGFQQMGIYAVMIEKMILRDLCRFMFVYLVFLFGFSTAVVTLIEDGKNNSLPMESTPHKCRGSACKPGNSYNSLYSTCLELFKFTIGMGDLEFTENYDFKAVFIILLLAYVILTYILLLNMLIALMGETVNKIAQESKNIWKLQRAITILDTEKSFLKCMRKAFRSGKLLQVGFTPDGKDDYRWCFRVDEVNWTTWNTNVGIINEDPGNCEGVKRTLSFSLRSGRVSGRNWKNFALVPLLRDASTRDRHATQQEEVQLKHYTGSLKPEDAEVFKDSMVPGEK

SMILES	IC50
C=Cc1cc(CNC(=O)C#Cc2ccc(C(C)(C)C)cc2)cc(F)c1NS(C)(=O)=O [Example 12, 3-(4-tert-Butylphenyl)propynoic acid 3-fluoro-4-methanesulfonylamino-5-vinylbenzylamide]	87 nM
C=Cc1cc(CNC(=O)/C=C/c2ccc(C(C)(C)C)cc2OC2CCOCC2)cc(F)c1NS(C)(=O)=O [Example 40, 3-[4-tert-Butyl-2-(tetrahydropyran-4-yloxy)phenyl]-N-(3-fluoro-4-methanesulfonylamino-5-vinylbenzyl)acrylamide]	290 nM
C=Cc1cc([C@@H](C)NC(=O)Nc2ccc(C(C)(C)C)cc2)ccc1NS(C)(=O)=O [Example 53, (R)—N-(4-{1-[3-(4-tert-Butylphenyl)ureido]ethyl}-2-vinylphenyl)methanesulfonamide]	99 nM
C=Cc1cc(CNC(=O)/C=C/c2ccc(C(C)(C)C)cc2)cc(Cl)c1NS(C)(=O)=O [Example 21, 3-(4-tert-Butylphenyl)-N-(3-chloro-4-methanesulfonylamino-5-vinylbenzyl)acrylamide]	160 nM
C=Cc1cc([C@@H](C)NC(=O)C#Cc2ccc(C(C)(C)C)cc2)cc(F)c1NS(C)(=O)=O [Example 13, 3-(4-tert-Butylphenyl)propynoic acid N-[1-(3-fluoro-4-methanesulfonylamino-5-vinylphenyl)ethyl]amide]	150 nM
C=Cc1cc(CNC(=O)/C(F)=C/c2ccc(C(C)(C)C)cc2)cc(F)c1NS(C)(=O)=O [Example 38, 3-(4-tert-Butylphenyl)-2-fluoro-N-(3-fluoro-4-methanesulfonylamino-5-vinylbenzyl)acrylamide]	270 nM
C#Cc1cc(CNC(=O)NCc2ccc(C(C)(C)C)cc2)c(Cl)cc1NS(C)(=O)=O [Example 5, N-{4-[3-(4-t-butylbenzyl)ureidomethyl]-5-chloro-2-ethynylphenyl}methanesulfonamide]	490 nM
C#Cc1cc([C@@H](C)NC(=O)Nc2ccc(C(C)(C)C)cc2)ccc1NS(C)(=O)=O [Example 55, (R)—N-(4-{1-[3-(4-tert-Butylphenyl)ureido]ethyl}-2-ethynylphenyl)methanesulfonamide]	170 nM
C=Cc1cc(CNC(=O)NCc2ccc(C(C)(C)C)cc2)cc(C)c1NS(C)(=O)=O [Example 8, N-{4-[3-(4-tert-Butyl-benzyl)-ureidomethyl]-2-methyl-6-vinyl-phenyl}-methanesulfonamide]	310 nM
C=Cc1cc(CNC(=O)/C=C/c2ccc(C(C)(C)C)cc2N2CCOCC2)cc(F)c1NS(C)(=O)=O [Example 22, 3-(4-tert-Butyl-2-morpholin-4-yl-phenyl)-N-(3-fluoro-4-methanesulfonylamino-5-vinylbenzyl)acrylamide]	250 nM
C=Cc1cc(CNC(=O)/C=C/c2ccc(C(C)(C)C)cc2NCCOC)cc(F)c1NS(C)(=O)=O [Example 27, 3-[4-tert-Butyl-2-(2-methoxyethylamino)phenyl]-N-(3-fluoro-4-methanesulfonylamino-5-vinylbenzyl)acrylamide]	76 nM
C=Cc1cc([C@@H](C)NC(=O)CCc2ccc(C(C)(C)C)cc2)cc(F)c1NS(C)(=O)=O [Example 35, (R)-3-(4-tert-Butylphenyl)-N-[1-(3-fluoro-4-methanesulfonylamino-5-vinylphenyl)ethyl]propionamide]	33 nM
C=Cc1cc(CNC(=O)NCc2ccc(C(C)(C)C)cc2)cc(Cl)c1NS(C)(=O)=O [Example 9, N-{4-[3-(4-tert-Butyl-benzyl)-ureidomethyl]-2-chloro-6-vinyl-phenyl}-methanesulfonamide]	130 nM
C=Cc1cc([C@@H](C)NC(=O)C#Cc2ccc(C(C)(C)C)cc2)ccc1NS(C)(=O)=O [Example 11, 3-(4-t-butylphenyl)-N-[1-(R)-(4-methanesulfonylamino-3-vinylphenyl)ethyl]propiolicamide]	79 nM
C=Cc1cc([C@@H](C)NC(=O)Nc2ccc(C(C)(C)C)cc2)ccc1NS(=O)(=O)C=C [Example 58, Ethenesulfonic Acid (4-{1-[3-(4-tert-butylphenyl)ureido]ethyl}-2-vinylphenyl)amide]	450 nM
C=Cc1cc(CNC(=O)/C(C)=C/c2ccc(C(C)(C)C)cc2)cc(F)c1NS(C)(=O)=O [Example 37, 3-(4-tert-Butylphenyl)-N-(3-fluoro-4-methanesulfonylamino-5-vinylbenzyl)-2-methylacrylamide]	49 nM
C=Cc1cc(CNC(=O)/C=C/c2ccc(C(C)(C)C)cc2OCCOC)cc(F)c1NS(C)(=O)=O [Example 23, 3-[4-tert-Butyl-2-(2-methoxy-ethoxy)-phenyl]-N-(3-fluoro-4-methanesulfonylamino-5-vinyl-benzyl)-acrylamide]	67 nM
C=Cc1cc(CNC(=O)/C=C/c2ccc(C(C)(C)C)cc2OC)cc(F)c1NS(C)(=O)=O [Example 28, 3-(4-tert-Butyl-2-methoxyphenyl)-N-(3-fluoro-4-methanesulfonylamino-5-vinyl-benzyl)acrylamide]	73 nM
C=Cc1cc([C@@H](C)NC(=O)/C=C/c2ccc(C(C)(C)C)cc2)cc(F)c1NS(C)(=O)=O [Example 36, (R)-3-(4-tert-Butylphenyl)-N-[1-(3-fluoro-4-methanesulfonylamino-5-vinylphenyl)ethyl]acrylamide]	54 nM
C=Cc1cc(CNC(=O)Nc2ccc(C(C)(C)C)cc2)cc(F)c1NS(C)(=O)=O [Example 57, N-{4-[3-(4-tert-Butylphenyl)ureidomethyl]-2-fluoro-6-vinylphenyl}methanesulfonamide]	500 nM
C=CCOc1cc(C(C)(C)C)ccc1/C=C/C(=O)NCc1cc(F)c(NS(C)(=O)=O)c(C=C)c1 [Example 30, 3-(2-Allyloxy-4-tert-butylphenyl)-N-(3-fluoro-4-methanesulfonylamino-5-vinylbenzyl)acrylamide]	68 nM
C#Cc1cc(CNC(=O)CCc2ccc(C(C)(C)C)cc2)cc(F)c1NS(C)(=O)=O [Example 47, 3-(4-tert-butyl-phenyl)-N-(3-ethynyl-5-fluoro-4-methanesulfonylamino-benzyl)-propionamide]	170 nM
C=Cc1cc(CNC(=O)/C=C/c2ccc(C(C)(C)C)cc2NC(C)C)cc(F)c1NS(C)(=O)=O [Example 34, 3-(4-tert-Butyl-2-isopropylaminophenyl)-N-(3-fluoro-4-methanesulfonylamino-5-vinylbenzyl)acrylamide]	170 nM
C=Cc1cc(CNC(=O)NCc2ccc(C(C)(C)C)cc2)ccc1NS(C)(=O)=O [Example 1, N-{4-[3-(4-t-butylbenzyl)ureidomethyl]-2-vinylphenyl}methanesulfonamide]	160 nM
C=Cc1cc([C@@H](C)NC(=O)/C(C)=C/c2ccc(C(C)(C)C)cc2)ccc1NS(C)(=O)=O [Example 42, (R)-3-(4-tert-Butylphenyl)-N-[1-(4-methanesulfonylamino-3-vinylphenyl)ethyl]-2-methylacrylamide]	22 nM
C=Cc1cc(CNC(=O)C(C)Cc2ccc(C(C)(C)C)cc2)cc(F)c1NS(C)(=O)=O (stereo not drawn) [Example 43, 3-(4-tert-Butylphenyl)-N-(3-fluoro-4-methanesulfonylamino-5-vinylbenzyl)-2-methylpropionamide]	67 nM
C#Cc1cc(CNC(=O)NCc2ccc(C(C)(C)C)cc2)cc(F)c1NS(C)(=O)=O [Example 3, N-{4-[3-(4-t-butylbenzyl)ureidomethyl]-2-ethynyl-6-fluorophenyl}methanesulfonamide]	180 nM
C=Cc1cc(CNC(=O)NCc2ccc(C(C)(C)C)cc2)c(Cl)cc1NS(C)(=O)=O [Example 4, N-{4-[3-(4-t-butylbenzyl)ureidomethyl]-5-chloro-2-vinylphenyl}methanesulfonamide]	170 nM
C=Cc1cc([C@@H](C)NC(=O)NCc2ccc(C(C)(C)C)cc2)cc(F)c1NS(C)(=O)=O [Example 7, (R)—N-(4-{1-[3-(4-tert-Butyl-benzyl)-ureido]-ethyl}-2-fluoro-6-vinyl-phenyl)-methanesulfonamide]	39 nM
C=Cc1cc(CNC(=O)/C=C/c2ccc(C(C)(C)C)cc2NCCC(C)C)cc(F)c1NS(C)(=O)=O [Example 32, 3-[4-tert-butyl-2-(3-methylbutylamino)phenyl]-N-(3-fluoro-4-methanesulfonylamino-5-vinylbenzyl)acrylamide]	490 nM
